Experimental data: patent US11242337B2, “Compounds useful for treating gastrointestinal tract disorders” (Ardelyx, Inc., priority 2017, dated 2022)

Key:
NHE3 [1] = target: T1, NHE3 (Homo sapiens, UniProt P48764); assay: Cell-based assay of NHE-3 activity (persistent inhibition), human; settings: human Persistence, 60 min incubation then washout
T1 construct: expressed in transfected cells
T1 sequence (P48764 26-834): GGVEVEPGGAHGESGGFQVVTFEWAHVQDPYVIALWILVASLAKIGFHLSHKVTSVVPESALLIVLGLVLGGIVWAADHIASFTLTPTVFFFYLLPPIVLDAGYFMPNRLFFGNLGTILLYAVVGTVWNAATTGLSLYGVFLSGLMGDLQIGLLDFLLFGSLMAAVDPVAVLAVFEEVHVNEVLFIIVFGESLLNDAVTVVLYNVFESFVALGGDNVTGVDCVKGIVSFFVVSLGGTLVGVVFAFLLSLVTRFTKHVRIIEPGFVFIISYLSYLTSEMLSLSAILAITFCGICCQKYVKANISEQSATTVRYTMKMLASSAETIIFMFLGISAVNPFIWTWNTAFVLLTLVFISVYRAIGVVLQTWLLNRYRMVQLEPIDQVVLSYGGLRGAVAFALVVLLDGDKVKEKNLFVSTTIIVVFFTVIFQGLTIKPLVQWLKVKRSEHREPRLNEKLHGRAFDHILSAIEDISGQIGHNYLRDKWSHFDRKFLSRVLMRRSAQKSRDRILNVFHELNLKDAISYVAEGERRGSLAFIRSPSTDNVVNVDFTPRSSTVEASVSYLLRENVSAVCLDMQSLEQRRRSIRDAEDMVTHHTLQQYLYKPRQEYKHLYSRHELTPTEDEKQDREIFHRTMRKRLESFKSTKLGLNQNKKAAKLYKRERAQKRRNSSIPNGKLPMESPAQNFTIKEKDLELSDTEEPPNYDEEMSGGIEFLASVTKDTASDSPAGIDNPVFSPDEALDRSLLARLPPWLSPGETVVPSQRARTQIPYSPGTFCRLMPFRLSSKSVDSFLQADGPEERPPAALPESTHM
T1 sequence (Q99653 2-195 partner limits assumed): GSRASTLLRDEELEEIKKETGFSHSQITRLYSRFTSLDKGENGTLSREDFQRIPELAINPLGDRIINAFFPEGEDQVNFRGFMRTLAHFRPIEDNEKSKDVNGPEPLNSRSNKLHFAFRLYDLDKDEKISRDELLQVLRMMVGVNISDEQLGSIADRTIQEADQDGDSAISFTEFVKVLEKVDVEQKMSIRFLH
Procedure: The ability of compounds to inhibit human and rat NHE-3-mediated Na^+ dependent H^+ antiport after application and washout was measured using a modification of the pH sensitive dye method described above. PS120 fibroblasts stably expressing human NHE3 and NHERF2 were obtained from Mark Donowitz (Baltimore, Md.). Opossum kidney (OK) cells were obtained from the ATCC and propagated per their instructions. The rat NHE-3 gene was introduced into OK cells via electroporation, and cells were seeded into 96 well plates and grown overnight. Medium was aspirated from the wells, cells were washed once with NaCl-HEPES buffer (100 mM NaCl, 50 mM HEPES, 10 mM glucose, 5 mM KCl, 2 mM CaCl2, 1 mM MgCl2, pH 7.4), then overlayed with NaCl-HEPES buffer containing 0-30 μM test compound. After a 60 min incubation at room temperature, the test drug containing buffer was aspirated from the cells. Following aspiration, cells were washed once with NaCl-HEPES buffer without drug, then incubated for 30 min at 37° C. with NH4Cl-HEPES buffer (20 mM NH4Cl, 80 mM NaCl, 50 mM HEPES, 5 mM KCl, 2 mM CaCl2, 1 mM MgCl2, pH 7.4) containing 5 μM BCECF-AM. Cells were washed once with Ammonium free, Na^+-free HEPES (100 mM choline, 50 mM HEPES, 10 mM glucose, 5 mM KCl, 2 mM CaCl2, 1 mM MgCl2, pH 7.4) and incubated in the same buffer for 10 minutes at room temperature to lower intracellular pH. NHE-3-mediated recovery of neutral intracellular pH was initiated (10 min after compound washout) by addition of Na-HEPES buffer. […] Changes in intracellular pH were monitored using a FLIPR Tetra® (Molecular Devices, Sunnyvale, Calif.) by excitation at λex 439 to 505 nm, and measuring BCECF fluorescence at λem 538 nm. The initial rate of the fluorescence ratio change was used as a measure of NHE-mediated Na^+/H^+ activity, and reported as the change in fluorescence ratio per minute.

NHE3 [2] = target: T1, NHE3; assay: Cell-based assay of NHE-3 activity (pre-incubation inhibition), human; settings: human Preincubation; for pIC50: 0-30 μM test compound
Procedure: Rat and human NHE-3-mediated Na^+-dependent H^+ antiport was measured using a modification of the pH sensitive dye method originally reported by Paradiso (Proc. Natl. Acad. Sci. USA. (1984) 81(23): 7436-7440). PS120 fibroblasts stably expressing human NHE3 and NHERF2 were obtained from Mark Donowitz (Baltimore, Md.). Opossum kidney (OK) cells were obtained from the ATCC and propagated per their instructions. The rat NHE-3 gene (GenBank M85300) was introduced into OK cells via electroporation, and cells were seeded into 96 well plates and grown overnight. Medium was aspirated from the wells then incubated for 30 min at 37° C. with NH4Cl-HEPES buffer (20 mM NH4Cl, 80 mM NaCl, 50 mM HEPES, 5 mM KCl, 2 mM CaCl2, 1 mM MgCl2, pH 7.4) containing 5 μM BCECF-AM. Cells were washed once with Ammonium free, Na^+-free HEPES (100 mM choline, 50 mM HEPES, 10 mM glucose, 5 mM KCl, 2 mM CaCl2, 1 mM MgCl2, pH 7.4) and incubated in the same buffer for 10 minutes at room temperature to lower intracellular pH with 0-30 μM test compound. […] Changes in intracellular pH were monitored using a FLIPR Tetra® (Molecular Devices, Sunnyvale, Calif.) by excitation at λex 439 to 505 nm, and measuring BCECF fluorescence at λem 538 nm. The initial rate of the fluorescence ratio change was used as a measure of NHE-mediated Na^+/H^+ activity, and reported as the change in fluorescence ratio per minute.

CN(C)[C@H]1Cc2c(Cl)cc(Cl)cc2[C@@H]1Oc1ccc(S(=O)(=O)N[C@@H]2CCN(CCOCCNC(=O)NCCCCNC(=O)NCCOCCN3CC[C@@H](NS(=O)(=O)c4ccc(O[C@H]5c6cc(Cl)cc(Cl)c6C[C@@H]5N(C)C)c(F)c4)C3)C2)cc1F [Example 112, 4-([(1S,2S)-4,6-Dichloro-2-(dimethylamino)-2,3-dihydro-1H-inden-1-yl]oxy)-N—[(R)-1-(20-[(R)-3-([4-([(1S,2S)-4,6-dichloro-2-(dimethylamino)-2,3-dihydro-1H-inden-1-yl]oxy)-3-fluorophenyl]sulfonamido)pyrrolidin-1 yl]-7,14-dioxo-3,18-dioxa-6,8,13,15-tetraazaicosyl)pyrrolidin-3-yl)-3-fluorobenzenesulfonamide; tetra(trifluoroacetate)]
% inhibition (NHE3 [1]): C (>70%)
pIC50 (NHE3 [1]): C (NHE3 pIC50 > 7)
% inhibition (NHE3 [2]): C (>70%)
pIC50 (NHE3 [2]): C (NHE3 pIC50 > 7)

N[C@@H]1CCCN([C@H]2Cc3c(Cl)cc(Cl)cc3[C@@H]2Oc2ccc(S(=O)(=O)NCCCCCCn3cc(CNC(=O)NCCCCNC(=O)NCc4cn(CCCCCCNS(=O)(=O)c5ccc(O[C@H]6c7cc(Cl)cc(Cl)c7C[C@@H]6N6CCC[C@@H](N)C6)cc5)nn4)nn3)cc2)C1 [Example 59, 3-[(1-[6-[(4-[[(1S,2S)-2-[(3R)-3-Aminopiperidin-1-yl]-4,6-dichloro-2,3-dihydro-1H-inden-1-yl]oxy]benzene)sulfonamido]-hexyl]-1H-1,2,3-triazol-4-yl)methyl]-1-[4-([[(1-[6-[(4-[[(1S,2S)-2-[(3R)-3-aminopiperidin-1-yl]-4,6-dichloro-2,3-dihydro-1H-inden-1-yl]oxy]benzene)sulfonamido]hexyl]-1H-1,2,3-triazol-4-yl)methyl]carbamoyl]amino)butyl]urea]
% inhibition (NHE3 [1]): C (>70%)
% inhibition (NHE3 [2]): C (>70%)

C[C@H](COCCOCCNC(=O)NCCCCNC(=O)NCCOCCOC[C@@H](C)NS(=O)(=O)c1ccc(O[C@H]2c3cc(Cl)cc(Cl)c3C[C@@H]2N2CCC[C@@H](N)C2)cc1)NS(=O)(=O)c1ccc(O[C@H]2c3cc(Cl)cc(Cl)c3C[C@@H]2N2CCC[C@@H](N)C2)cc1 [Example 97, 3-(2-[2-[(2R)-2-[(4-[[(1S,2S)-2-[(3R)-3-Aminopiperidin-1-yl]-4,6-dichloro-2,3-dihydro-1H-inden-1-yl]oxy]benzene)sulfonamido]propoxy]ethoxy]ethyl)-1-(4-[[(2-[2-[(2R)-2-[(4-[[(1S,2S)-2-[(3R)-3-aminopiperidin-1-yl]-4,6-dichloro-2,3-dihydro-1H-inden-1-yl]oxy]benzene)sulfonamido]propoxy]ethoxy]ethyl)carbamoyl]amino]butyl)urea]
% inhibition (NHE3 [1]): C (>70%)
pIC50 (NHE3 [1]): C (NHE3 pIC50 > 7)
% inhibition (NHE3 [2]): C (>70%)
pIC50 (NHE3 [2]): C (NHE3 pIC50 > 7)

Cc1cc(S(=O)(=O)NCCOCCOCCNC(=O)NCCCCNC(=O)NCCOCCOCCNS(=O)(=O)c2ccc(O[C@H]3c4cc(Cl)cc(OC(F)(F)F)c4C[C@@H]3N(C)C)c(C)c2)ccc1O[C@H]1c2cc(Cl)cc(OC(F)(F)F)c2C[C@@H]1N(C)C [Example 20, 1-[2-(2-[2-[(4-[[(1S,2S)-6-Chloro-2-(dimethylamino)-4-(trifluoromethoxy)-2,3-dihydro-1H-inden-1-yl]oxy]-3-methylbenzene)sulfonamido]ethoxy]ethoxy)ethyl]-3-[4-([[2-(2-[2-[(4-[[(1S,2S)-6-chloro-2-(dimethylamino)-4-(trifluoromethoxy)-2,3-dihydro-1H-inden-1-yl]oxy]-3-methylbenzene)sulfonamido]ethoxy]ethoxy)ethyl]carbamoyl]amino)butyl]urea]
% inhibition (NHE3 [1]): A (NHE3 < 40%)
pIC50 (NHE3 [1]): A (NHE3 pIC50 < 6)
% inhibition (NHE3 [2]): A (NHE3 < 40%)
pIC50 (NHE3 [2]): A (NHE3 pIC50 < 6)

CN(C)[C@@H]1CCCN([C@H]2Cc3c(C#N)cc(Cl)cc3[C@@H]2Oc2ccc(S(=O)(=O)NCCOCCOCCNC(=O)NCCCCNC(=O)NCCOCCOCCNS(=O)(=O)c3ccc(O[C@H]4c5cc(Cl)cc(C#N)c5C[C@@H]4N4CCC[C@@H](N(C)C)C4)cc3)cc2)C1 [Example 121, 4-([(1S,2S)-6-Chloro-4-cyano-2-[(R)-3-(dimethylamino)piperidin-1-yl]-2,3-dihydro-1H-inden-1-yl]oxy)-N-[26-([4-([(1S,2S)-6-chloro-4-cyano-2-[(R)-3-(dimethylamino)piperidin-1-yl]-2,3-dihydro-1H-inden-1-yl]oxy)phenyl]sulfonamido)-10,17-dioxo-3,6,21,24-tetraoxa-9,11,16,18-tetraazahexacosyl]benzenesulfonamide]
% inhibition (NHE3 [1]): A (NHE3 < 40%)
pIC50 (NHE3 [1]): C (NHE3 pIC50 > 7)
% inhibition (NHE3 [2]): B (40-70%)
pIC50 (NHE3 [2]): C (NHE3 pIC50 > 7)

CN(C)[C@H]1Cc2c(C#N)cc(Cl)cc2[C@@H]1Oc1ccc(S(=O)(=O)NCCOCCOCCNC(=O)NCCCCNC(=O)NCCOCCOCCNS(=O)(=O)c2ccc(O[C@H]3c4cc(Cl)cc(C#N)c4C[C@@H]3N(C)C)cc2)cc1 [Example 12, 3-[2-(2-[2-[(4-[[(1S,2S)-6-Chloro-4-cyano-2-(dimethylamino)-2,3-dihydro-1H-inden-1-yl]oxy]benzene)sulfonamido]ethoxy]ethoxy)ethyl]-1-[4-([[2-(2-[2-[(4-[[(1S,2S)-6-chloro-4-cyano-2-(dimethylamino)-2,3-dihydro-1H-inden-1-yl]oxy]benzene)sulfonamido]ethoxy]ethoxy)ethyl]carbamoyl]amino)butyl]urea; bis(trifluoroacetic acid)]
% inhibition (NHE3 [1]): B (40-70%)
IC50 (NHE3 [1]): 0.1 to 1 µM
% inhibition (NHE3 [2]): A (NHE3 < 40%)
pIC50 (NHE3 [2]): C (NHE3 pIC50 > 7)

N#Cc1cc(Cl)cc2c1C[C@H](N1CCNCC1)[C@H]2Oc1ccc(S(N)(=O)=O)cc1 [Example 146, 4-([(1S,2S)-6-Chloro-4-cyano-2-(piperazin-1-yl)-2,3-dihydro-1H-inden-1-yl]oxy)benzenesulfonamide]
% inhibition (NHE3 [1]): A (NHE3 < 40%)
pIC50 (NHE3 [1]): C (NHE3 pIC50 > 7)
% inhibition (NHE3 [2]): C (>70%)
pIC50 (NHE3 [2]): C (NHE3 pIC50 > 7)
